In PubChem BioAssay AID330 (DTP/NCI, 2004):
Several values for one entry are separate records, joined by “and”; a condition that tells them apart may be missing. Equal entries are not always repeated. Toxic doses and inconclusive results are not listed. The calls were made as follows: active = survival T/C of 150% or more; inactive = T/C below 125% in these data.

Tested on: P388 leukemia ip, CD2F1 mice, survival T/C
Test: NCI In Vivo Anticancer Drug Screen. Data for tumor model P388 Leukemia (intraperitoneal) in CD2F1 (CDF1) mice
Settings: endpoint: median survival time, higher = longer survival
Method in brief: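 Mice carrying the transplanted tumor received test compound or vehicle. Survival was recorded in each group, and the value is the treated-group measurement divided by that of the vehicle-treated control group.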

[1] = dose: 100.0 mg/kg/injection, schedule: Q04DX003 (ip), vehicle: saline with Tween-80
[2] = dose: 200.0 mg/kg/injection, schedule: Q04DX003 (ip), vehicle: saline with Tween-80
[3] = dose: 400.0 mg/kg/injection, schedule: Q04DX003 (ip), vehicle: saline with Tween-80
[4] = dose: 100.0 mg/kg/injection, schedule: Q04DX003 (ip), vehicle: saline
[5] = dose: 200.0 mg/kg/injection, schedule: Q04DX003 (ip), vehicle: saline
[6] = dose: 12.5 mg/kg/injection, schedule: Q01DX009 (ip), vehicle: saline with Tween-80
[7] = dose: 25.0 mg/kg/injection, schedule: Q01DX009 (ip), vehicle: saline with Tween-80
[8] = dose: 50.0 mg/kg/injection, schedule: Q01DX005 (ip), vehicle: saline with Tween-80
[9] = dose: 100.0 mg/kg/injection, schedule: Q01DX009 (ip), vehicle: saline
[10] = dose: 200.0 mg/kg/injection, schedule: Q01DX009 (ip), vehicle: saline

Measured: T/C

CCOc1ccccc1C(=O)Nc1ccc(Br)cc1
inactive: dose: 50.0 mg/kg/injection, schedule: Q01DX009 (ip), vehicle: Klucel (hydroxypropylcellulose) (HPC) 100 % of control | dose: 100.0 mg/kg/injection, schedule: Q01DX009 (ip), vehicle: Klucel (hydroxypropylcellulose) (HPC) 99 % of control | dose: 100.0 mg/kg/injection, schedule: Q01DX009 (ip), vehicle: saline with Tween-80 112 % of control | [1] 100 % of control | dose: 200.0 mg/kg/injection, schedule: Q01DX009 (ip), vehicle: Klucel (hydroxypropylcellulose) (HPC) 106 % of control | dose: 200.0 mg/kg/injection, schedule: Q01DX009 (ip), vehicle: saline with Tween-80 104 % of control | [2] 100 % of control | dose: 400.0 mg/kg/injection, schedule: Q01DX009 (ip), vehicle: Klucel (hydroxypropylcellulose) (HPC) 97 % of control | dose: 400.0 mg/kg/injection, schedule: Q01DX009 (ip), vehicle: saline with Tween-80 91 % of control | [3] 95 % of control

COc1ccc(CC(CO)NC(=O)c2ccccc2)cc1 (stereo not given)
inactive: dose: 100.0 mg/kg/injection, schedule: Q04DX002 (ip), vehicle: Klucel (hydroxypropylcellulose) (HPC) 101 % of control | dose: 200.0 mg/kg/injection, schedule: Q04DX002 (ip), vehicle: Klucel (hydroxypropylcellulose) (HPC) 108 % of control | dose: 400.0 mg/kg/injection, schedule: Q04DX002 (ip), vehicle: Klucel (hydroxypropylcellulose) (HPC) 94 % of control

O=C1NC(=O)C(c2ccccc2)(c2ccccc2)N1CCS
inactive: dose: 12.5 mg/kg/injection, schedule: Q04DX003 (ip), vehicle: saline 108 % of control | dose: 25.0 mg/kg/injection, schedule: Q04DX003 (ip), vehicle: Klucel (hydroxypropylcellulose) (HPC) 98 % of control and 108 % of control | dose: 25.0 mg/kg/injection, schedule: Q04DX003 (ip), vehicle: saline 100 % of control | dose: 50.0 mg/kg/injection, schedule: Q04DX003 (ip), vehicle: Klucel (hydroxypropylcellulose) (HPC) 98 % of control and 99 % of control | dose: 50.0 mg/kg/injection, schedule: Q04DX003 (ip), vehicle: saline 104 % of control | dose: 100.0 mg/kg/injection, schedule: Q04DX003 (ip), vehicle: Klucel (hydroxypropylcellulose) (HPC) 97 % of control | [4] 108 % of control | dose: 200.0 mg/kg/injection, schedule: Q04DX003 (ip), vehicle: Klucel (hydroxypropylcellulose) (HPC) 100 % of control and 117 % of control | [5] 94 % of control | dose: 400.0 mg/kg/injection, schedule: Q04DX003 (ip), vehicle: Klucel (hydroxypropylcellulose) (HPC) 106 % of control and 109 % of control

CC(=O)N1NC(=O)c2c(c3cc(OCc4ccccc4)ccc3n2C)C1C(C)C (stereo not given)
inactive: dose: 30.0 mg/kg/injection, schedule: Q04DX002 (ip), vehicle: Klucel (hydroxypropylcellulose) (HPC) 98 % of control | dose: 60.0 mg/kg/injection, schedule: Q04DX002 (ip), vehicle: Klucel (hydroxypropylcellulose) (HPC) 96 % of control | dose: 120.0 mg/kg/injection, schedule: Q04DX002 (ip), vehicle: Klucel (hydroxypropylcellulose) (HPC) 96 % of control

Fc1ccc(N(c2nc(Cl)nc(Cl)n2)c2nc(Cl)nc(Cl)n2)cc1
inactive: [6] 113 % of control | [7] 100 % of control | dose: 50.0 mg/kg/injection, schedule: Q01DX009 (ip), vehicle: saline with Tween-80 113 % of control

O=[N+]([O-])c1ccc(-[n+]2ccc3ccccc3c2)c([N+](=O)[O-])c1
inactive: dose: 12.5 mg/kg/injection, schedule: Q01DX005 (ip), vehicle: saline 110 % of control | dose: 25.0 mg/kg/injection, schedule: Q01DX005 (ip), vehicle: saline 106 % of control | dose: 50.0 mg/kg/injection, schedule: Q01DX005 (ip), vehicle: saline 104 % of control and 111 % of control

CC(=O)CC(=O)c1ccc(C)cc1.CC(=O)CC(=O)c1ccc(C)cc1.[Ni]
inactive: dose: 3.12 mg/kg/injection, schedule: Q01DX005 (ip), vehicle: saline with Tween-80 97 % of control | dose: 6.25 mg/kg/injection, schedule: Q01DX005 (ip), vehicle: saline with Tween-80 95 % of control | dose: 12.5 mg/kg/injection, schedule: Q01DX005 (ip), vehicle: saline with Tween-80 90 % of control | dose: 25.0 mg/kg/injection, schedule: Q04DX002 (ip), vehicle: saline with Tween-80 95 % of control | dose: 25.0 mg/kg/injection, schedule: Q04DX003 (ip), vehicle: saline with Tween-80 97 % of control | [8] 91 % of control | dose: 50.0 mg/kg/injection, schedule: Q04DX002 (ip), vehicle: saline with Tween-80 99 % of control | dose: 50.0 mg/kg/injection, schedule: Q04DX003 (ip), vehicle: saline with Tween-80 101 % of control | dose: 100.0 mg/kg/injection, schedule: Q04DX002 (ip), vehicle: saline with Tween-80 105 % of control | dose: 200.0 mg/kg/injection, schedule: Q04DX002 (ip), vehicle: saline with Tween-80 98 % of control

CC(=O)C(=CN(C)c1ccc([N+](=O)[O-])cc1)C(C)=O
inactive: dose: 6.25 mg/kg/injection, schedule: Q01DX009 (ip), vehicle: saline with Tween-80 111 % of control | [6] 92 % of control | [7] 100 % of control | [9] 91 % of control | [10] 91 % of control

CCOc1cc(C)c(C(CC(=O)O)CC(=O)N(CCCl)CCCl)cc1C(C)C (stereo not given)
inactive: [4] 107 % of control | [5] 100 % of control | dose: 400.0 mg/kg/injection, schedule: Q04DX003 (ip), vehicle: saline 108 % of control

CN(C)CCCNC(=O)/C=C\C(=O)O
inactive: dose: 12.5 mg/kg/injection, schedule: Q01DX009 (ip), vehicle: saline 107 % of control | dose: 25.0 mg/kg/injection, schedule: Q01DX009 (ip), vehicle: saline 100 % of control | dose: 50.0 mg/kg/injection, schedule: Q01DX009 (ip), vehicle: saline 109 % of control and 93 % of control | [9] 94 % of control | [10] 94 % of control | dose: 400.0 mg/kg/injection, schedule: Q01DX009 (ip), vehicle: saline 97 % of control

Cc1ccc(S(=O)(=O)NC(CCCNC(=O)OCc2ccccc2)C(=O)O)cc1 (stereo not given)
inactive: dose: 50.0 mg/kg/injection, schedule: Q01DX005 (ip), vehicle: Klucel (hydroxypropylcellulose) (HPC) 100 % of control | dose: 100.0 mg/kg/injection, schedule: Q01DX005 (ip), vehicle: Klucel (hydroxypropylcellulose) (HPC) 99 % of control | dose: 200.0 mg/kg/injection, schedule: Q01DX005 (ip), vehicle: Klucel (hydroxypropylcellulose) (HPC) 96 % of control

[Cl][Hg][c]1cccc(I)c1N=Nc1ccccc1
inactive: dose: 2.5 mg/kg/injection, schedule: Q01DX009 (ip), vehicle: saline + alcohol 104 % of control | dose: 5.0 mg/kg/injection, schedule: Q01DX009 (ip), vehicle: saline + alcohol 94 % of control

CCCCC(CC)(CC(=N)C(C)(C)C)c1ccccc1 (stereo not given)
inactive: dose: 50.0 mg/kg/injection, schedule: Q01DX009 (ip), vehicle: saline + alcohol 111 % of control | dose: 100.0 mg/kg/injection, schedule: Q01DX009 (ip), vehicle: saline + alcohol 103 % of control | dose: 200.0 mg/kg/injection, schedule: Q01DX009 (ip), vehicle: saline + alcohol 119 % of control

CC(C)c1ccc(OC(=N)c2ccccc2)cc1
inactive: [1] 98 % of control | [2] 100 % of control | [3] 89 % of control

CCOc1c(N=Nc2ccccc2OC)c(-c2ccccc2)nn1C(N)=S
inactive: [8] 88 % of control | dose: 100.0 mg/kg/injection, schedule: Q01DX005 (ip), vehicle: saline with Tween-80 87 % of control | dose: 200.0 mg/kg/injection, schedule: Q01DX005 (ip), vehicle: saline with Tween-80 98 % of control
